Bounds are passed on as bounds.

Data set [1] relates to Vesicular stomatitis virus (VSV) particles encoding luciferase and pseudotyped with EboV GP. The data set is described as follows: microbe, parasite or virus in culture. Type of data set: cell-based, Ebola virus. As to conditions: for inhibition at 10 µM: compound concentration 10 μM; for inhibition at 2 µM: compound concentration 2 μM.

What is called melting point is the temperature of the solid-liquid transition. For `O=C(OCc1ccccc1)N1CCN(C(=O)c2ccc3nc(-c4ccccn4)[nH]c3c2)CC1`, the melting point came to 165 °C.
With `FC(F)(F)c1ccc(CN2CCN(Cc3ccc4nc(-c5ccccc5)[nH]c4c3)CC2)cc1`, the melting point came to 178 °C.
In the case of `FC(F)(F)c1ccc(CN2CCN(Cc3ccc4nc(-c5cccnc5)[nH]c4c3)CC2)cc1`, the melting point turned out to be 138 °C.
Consider `O=C(c1ccc2nc(-c3ccccc3)[nH]c2c1)N1CCN(Cc2ccc(C(F)(F)F)cc2)CC1`, for which the melting point worked out at 220 °C.
`O=C(c1ccc2nc(C(c3ccccc3)c3ccccc3)[nH]c2c1)N1CCN(Cc2ccc(C(F)(F)F)cc2)CC1` showed a melting point of 148 °C.
For `FC(F)(F)Oc1cccc(CN2CCN(Cc3ccc4nc(C(c5ccccc5)c5ccccc5)[nH]c4c3)CC2)c1`, the melting point came to 86 °C.
Compound `FC(F)(F)Oc1cccc(CN2CCN(Cc3ccc4nc(-c5cccnc5)[nH]c4c3)CC2)c1` yielded a melting point of 110 °C.
`FC(F)(F)Oc1cccc(CN2CCN(Cc3ccc4nc(-c5ccccn5)[nH]c4c3)CC2)c1` came in with a melting point of 65 °C.
For `O=C(c1ccc2nc(C(c3ccccc3)c3ccccc3)[nH]c2c1)N1CCN(Cc2cccc(OC(F)(F)F)c2)CC1`, the melting point amounted to 76 °C.
In the case of `O=C(c1ccc2nc(-c3ccccn3)[nH]c2c1)N1CCN(Cc2cccc(OC(F)(F)F)c2)CC1`, the melting point was 100 °C.
On the same count and under the same terms, under `FC(F)(F)Oc1ccc(CN2CCN(Cc3ccc4nc(-c5cccnc5)[nH]c4c3)CC2)cc1` stands 88 °C; under `FC(F)(F)Oc1ccc(CN2CCN(Cc3ccc4nc(-c5ccccn5)[nH]c4c3)CC2)cc1`, 64 °C; under `O=C(c1ccc2nc(C(c3ccccc3)c3ccccc3)[nH]c2c1)N1CCN(Cc2ccc(OC(F)(F)F)cc2)CC1`, 120 °C.
Same read-out and setting: the value for `O=C(c1ccc2nc(-c3ccccn3)[nH]c2c1)N1CCN(Cc2ccc(OC(F)(F)F)cc2)CC1` was 190 °C; that for `Cc1ccc(NC(=O)N2CCN(Cc3ccc4nc(-c5cccnc5)[nH]c4c3)CC2)cc1` was 174 °C.
Still for that read-out and setting: under `O=C(Nc1ccc(C(F)(F)F)cc1)N1CCN(Cc2ccc3nc(C(c4ccccc4)c4ccccc4)[nH]c3c2)CC1` stands 172 °C; under `O=C(COc1ccc(Cl)cc1)N1CCN(Cc2ccc3nc(C(c4ccccc4)c4ccccc4)[nH]c3c2)CC1`, 194 °C; under `O=C(COc1ccc(Cl)cc1)N1CCN(Cc2ccc3nc(-c4ccccn4)[nH]c3c2)CC1`, 138 °C.
What is called inhibition is the relative decrease from the control value, in per cent. A low value points to a weak effect. `COC(=O)c1ccc(COc2ccccc2CN2CCN(Cc3ccc4nc(-c5ccccc5)[nH]c4c3)CC2)cc1` [Compound E11, N1-[[2-[(4-methoxycarbonylphenyl)methoxy]phenyl]methyl]-N4-[(2-phenyl-benzimidazol-5-yl)methyl]-piperazine] registered an inhibition at 10 µM in data set [1] of 95%.
The same measure, in the same setting: the value for `COC(=O)c1ccc(COc2ccccc2CN2CCN(Cc3ccc4nc(-c5ccccn5)[nH]c4c3)CC2)cc1` [Compound E14, N1-[[2-[(4-methoxycarbonylphenyl)methoxy]phenyl]methyl]-N4-[[2-(2-pyridyl)-benzimidazol-5-yl]methyl]-piperazine] was 80%.
In data set [1], `COC(=O)c1ccc(COc2ccccc2CN2CCN(Cc3ccc4nc(-c5ccc(C(F)(F)F)cc5)[nH]c4c3)CC2)cc1` [Compound E15, N1-[[2-[4-(trifluoromethyl)phenyl]-benzimidazol-5-yl]methyl]-N4-[[2-[(4-methoxycarbonylphenyl)methoxy]phenyl]methyl]-piperazine] came in with an inhibition at 2 µM of 2% and an inhibition at 10 µM of 93.5%.
For `COC(=O)c1ccc(COc2ccccc2CN2CCN(Cc3ccc4nc(-c5cccc(C(F)(F)F)c5)[nH]c4c3)CC2)cc1` [Compound E16, N1-[[2-[3-(trifluoromethyl)phenyl]-benzimidazol-5-yl]methyl]-N4-[[2-[(4-methoxycarbonylphenyl)methoxy]phenyl]methyl]-piperazine], the melting point is 102 °C. Besides, in data set [1], the inhibition at 2 µM was found to be 64.1% and the inhibition at 10 µM came out at 91.6%.
Compound `COC(=O)c1ccc(COc2ccccc2CN2CCN(C(=O)c3ccc4nc(-c5ccccc5)[nH]c4c3)CC2)cc1` [Compound E17, N1-[[2-[(4-methoxycarbonylphenyl)methoxy]phenyl]methyl]-N4-(2-phenyl-benzimidazole-5-carbonyl)-piperazine] came in with a melting point of 255 °C. This compound gave an inhibition at 10 µM in data set [1] below 20%.
As for `COC(=O)c1ccc(COc2ccccc2CN2CCN(C(=O)c3ccc4nc(C(c5ccccc5)c5ccccc5)[nH]c4c3)CC2)cc1` [Compound E18, N1-(2-benzhydryl-benzimidazole-5-carbonyl)-N4-[[2-[(4-methoxycarbonylphenyl)methoxy]phenyl]methyl]-piperazine], the melting point was 196 °C. Further, the inhibition at 10 µM in data set [1] is below 20%.
Compound `COC(=O)c1ccc(COc2ccccc2CN2CCN(C(=O)c3ccc4nc(-c5cccnc5)[nH]c4c3)CC2)cc1` [Compound E19, N1-[[2-[(4-methoxycarbonylphenyl)methoxy]phenyl]methyl]-N4-[2-(3-pyridyl)-benzimidazole-5-carbonyl]-piperazine] gave an inhibition at 10 µM in data set [1] below 20%.
As for `COC(=O)c1ccc(COc2ccccc2CN2CCN(C(=O)c3ccc4nc(-c5ccccn5)[nH]c4c3)CC2)cc1` [Compound E20, N1-[[2-[(4-methoxycarbonylphenyl)methoxy]phenyl]methyl]-N4-[2-(2-pyridyl)-benzimidazole-5-carbonyl]-piperazine], the melting point amounted to 96 °C. The same compound came in with an inhibition at 10 µM in data set [1] below 20%.
`FC(F)(F)c1ccc(CN2CCN(Cc3ccc4nc(C(c5ccccc5)c5ccccc5)[nH]c4c3)CC2)cc1` [Compound E22, N1-[(2-benzhydryl-benzimidazol-5-yl)methyl]-N4-[4-(trifluoromethyl)benzyl]-piperazine]: the melting point was 236 °C. For the same compound, in data set [1], the inhibition at 2 µM was below 20% and at 10 µM the inhibition was 80%.
`FC(F)(F)Oc1cccc(CN2CCN(Cc3ccc4nc(-c5ccccc5)[nH]c4c3)CC2)c1` [Compound E29, N1-[3-(trifluoromethoxy)benzyl]-N4-[(2-phenyl-benzimidazol-5-yl)methyl]-piperazine] returned a melting point of 80 °C. In data set [1], the inhibition at 2 µM is below 20% and the inhibition at 10 µM turned out to be 80%.
For `O=C(Nc1ccc(C(F)(F)F)cc1)N1CCN(Cc2ccc3nc(-c4ccccn4)[nH]c3c2)CC1` [Compound E52, N1-[[2-(2-pyridyl)-benzimidazol-5-yl]methyl]-N4-[[4-(trifluoromethyl)phenyl]carbamoyl]-piperazine], in data set [1], the inhibition at 2 µM was determined as 64.3% and at 10 µM the inhibition was 82.9%.
Turning to `CCOP(=O)(Cc1ccc(COc2ccccc2CN2CCN(Cc3ccc4nc(-c5cccc(C(F)(F)F)c5)[nH]c4c3)CC2)cc1)OCC` [Compound E57], the inhibition at 10 µM in data set [1] was below 20%.
Compound `CCOP(=O)(Cc1cccc(COc2ccccc2CN2CCN(Cc3ccc4nc(-c5cccc(C(F)(F)F)c5)[nH]c4c3)CC2)c1)OCC` [Compound E59] registered an inhibition at 10 µM in data set [1] below 20%.

For the origin of these results see US11479571B2 (priority 2016, dated 2022).
